{"source": "patent EP0151110B1", "about": "(priority 1983, dated 1985)", "key": {"[1]": {"experiment": "Skin temperature within intracutaneous wheals compared with skin outside the wheals during anesthesia", "type": "in vivo, humans", "details": "for T1 °C Intracutaneous Wheal / °C Difference: HCl-salt; for T1 °C Intracutaneous Wheal: center of wheal, 10 minutes after intracutaneous injection, mean of 6 wheals; for °C Difference: T1 (wheal) minus T2 (controls outside wheal), 10 minutes after injection; for change of temperature over the wheal, in words: Table 4, Conc. 0.25 %", "experimental": "The means value of 6 wheals for each substance forms the basis for the values. The control values, however, represent the mean value obtained from 4 different sites measured outside the wheals 90 degrees apart and 2 centimeters from the wheal's center.\nIn the temperature measurements, an Oriel temperature apparatust has been used. This is battery driven and is connected to a detector (diameter, 2,5 mm) and has an accuracy of ± 0.1°C. The temperature of the skin is measured by pressing the detector against the skin with a pressure of 100 grams.\nagainst the skin until a constant temperature is obtained.\nIn Table 4, T, is the measurement obtained at the center of the wheal, and T2 is the average of four measurements taken 90 degrees apart outside of the wheal and within 2 centimeters of the wheal's center."}, "[2]": {"details": "racemate; from Aberg et al., Acta pharmacol. et toxicol. 41 (1977), Table 1 at p. 435; cited from earlier work"}, "[3]": {"details": "racemate; from Aberg et al., Acta pharmacol. et toxicol. 41 (1977), Table 1 at p. 435; cited from earlier work", "remark": "listed apart in the source"}, "[4]": {"details": "in vivo", "source_text": "• ^* Trypan blue test; Hoppe et al. (1950), 39, 147-151 \"Use Of Trypan Blue And Rabbit Eye Tests For Irritation\", J. Amer. Pharm. Ass. (Scient. Ed.), the values are approximate threshold values of tissue irritancy. • ^** LD50, i.e. 50% mortality of mice. • ^*** Studies On The Duration Of Local Anaesthesia: Structure/Activity Relationships In A Series Of Homologous Local Anaesthetics, by G. Aberg, et al., Acta pharmacol. et toxicol., 41 (1977) pp. 432-443, Table 1 at p. 435."}, "in vivo": {"experiment": "in vivo", "details": "mouse, iv, read-out: LD50** I.v. (intravenous) mg/kg/mouse"}, "ulnar volar nerves": {"tested_on": "ulnar volar nerves", "experiment": "Digital nerve blocks in man (finger blockade)", "type": "in vivo", "details": "compared among 12 optically active and inactive structures", "experimental": "^2 Digital nerve blocks in man. The test solutions were injected to block the ulnar volar nerves on the 2nd and 4th fingers of the same volunteers who has participated in the intracutaneous wheal tests described above. The tests were carried out in a double blind fashion in a rotating system, so that each solution was used with equal frequency on each of the blocked fingers. A total of four injections, 1.0 ml per injection, was done in each subject. One week later the procedure was repeated in the same subjects using the remaining test solutions. This method has been described by Dhuner et al. (1972) (for citation see Table 2 footnote 1). To measure the efficacy and duration of the blocks, the individual fingers were pricked rapidly 10 times with a needle algesimeter and the number of painful pricks noted. Each finger was tested every five minutes until complete recovery. The time of complete anesthesia has been called \"duration of anesthesia\". • ^* i.e. - the time from injection to complete analgesia • ^** i.e. - the number of successful anesthesias of total number of anesthesias performed (no anesthesia is possible if the ulnar volar nerves are not contacted by the anesthetic) • *** new isolated stereoisomers"}, "[5]": {"tested_on": "periphera nerve ending of the epidermis", "experiment": "Infiltration anesthesia, intracutaneous wheals on forearms of man (pin-prick)", "type": "in vivo", "details": "compared among 12 optically active and inactive structures", "experimental": "By use of intracutaneous wheals it is possible to measure the analgesic effect of an anesthetic on the periphera nerve ending of the epidermis.\nThis technique gives information about: • (1) the duration of anesthesia. • (2) Epidermal diffusion. • (3) Vascular effects. [formula]\n' Infiltration anesthesia on forearms of man. The test solutions were injected intracutaneously on the dorsum of the forearms of 12 healthy volunteers, 20-25 years old. Three wheals were made on each arm in a rotating system in a double-blind fashion. The local anesthetic effect was tested using a pin-prick technique. the \"duration of anesthesia\" was defined as the time during which none of six pin-pricks into the wheel was felt. The method had been described by Dhuner et al. (1972). Dhuner, K. G., D. H. Lewis, A. Nyquist, D. Selander & E. Stig: Vascular effects of the isomers of mepivacaine, Acta Anaest. Scand. 1972, Supple. 48, 45-52. • * L=Laevo, R=Racemic, D=Dextro • ** C equals grams per 100 ml of solution. • ^*** New isolated stereoisomers [formula]"}}}
{"smiles": "CCCN1CCCCC1C(=O)Nc1c(C)cccc1C", "note": "(racemic) [No. 3, N-n-propylpipecolic acid-2,6-xylidide]", "values": [{"measurement": "T1 °C Intracutaneous Wheal", "setting": "[1]; Conc. 0.25 %", "result": 33.1, "unit": "°C"}, {"measurement": "°C Difference", "setting": "[1]; Conc. 0.25 %", "result": "−0.1", "unit": "°C"}, {"measurement": "change of temperature over the wheal, in words", "setting": "[1]", "result": "practically no change in temperature"}, {"measurement": "Tissue toxicity (tissue irritancy), in words", "setting": "[2]", "result": "tissue irritating"}, {"measurement": "solubility in water, in words", "setting": "[3]", "result": "slightly soluble in water"}]}
{"smiles": "CCCCN1CCCCC1C(=O)Nc1c(C)cccc1C", "note": "(racemic) [No. 4, N-n-butylpipecolic acid-2,6-xylidide]", "values": [{"measurement": "T1 °C Intracutaneous Wheal", "setting": "[1]; Conc. 0.25 %", "result": 31.5, "unit": "°C"}, {"measurement": "°C Difference", "setting": "[1]; Conc. 0.25 %", "result": "−0.6", "unit": "°C"}]}
{"smiles": "Cc1cccc(C)c1NC(=O)C1CCCCN1C", "note": "(racemic) [compound 1]", "values": [{"measurement": "Tissue* toxicity limits in %", "setting": "[4]", "result": 3.5, "unit": "%"}, {"measurement": "LD50", "setting": "in vivo", "result": 40.3, "unit": "mg/kg"}]}
{"smiles": "CCN1CCCCC1C(=O)Nc1c(C)cccc1C", "note": "(racemic) [compound 2]", "values": [{"measurement": "Tissue* toxicity limits in %", "setting": "[4]", "result": 3.0, "unit": "%"}, {"measurement": "LD50", "setting": "in vivo", "result": 21, "unit": "mg/kg"}]}
{"smiles": "CCCN1CCCCC1C(=O)Nc1c(C)cccc1C", "note": "(racemic) [compound 3]", "values": [{"measurement": "Tissue* toxicity limits in %", "setting": "[4]", "result": 1.5, "unit": "%"}]}
{"smiles": "CCCN1CCCC[C@H]1C(=O)Nc1c(C)cccc1C", "note": "[L-N-n-propylpipecolic acid-2,6-xylidide]", "values": [{"measurement": "Tissue* toxicity limits in %", "setting": "[4]", "result": 0.75, "unit": "%"}, {"measurement": "anesthetic effects, finger-blockade (Table 3), in words", "setting": "ulnar volar nerves", "result": "gives the optimal increase of anesthetic effects"}, {"measurement": "anesthetic effects, intracutaneous wheal (Table 2), in words", "setting": "[5]", "result": "gives the optimal increase of anesthetic effects"}, {"measurement": "T1 °C Intracutaneous Wheal", "setting": "[1]; Conc. 0.25 %", "result": 30.0, "unit": "°C"}, {"measurement": "°C Difference", "setting": "[1]; Conc. 0.25 %", "result": "−1.2", "unit": "°C"}, {"measurement": "change of temperature over the wheal, in words", "setting": "[1]", "result": "lowers the temperature over its wheal to approximately the same extent as the combination of lidocaine with adrenaline"}]}
{"smiles": "CCN1CCCC[C@@H]1C(=O)Nc1c(C)cccc1C", "note": "[R-N-2-ethyl-pipecolic acid-2,6-xylidide]", "values": [{"measurement": "T1 °C Intracutaneous Wheal", "setting": "[1]; Conc. 1.0 %", "result": 31.2, "unit": "°C"}, {"measurement": "°C Difference", "setting": "[1]; Conc. 1.0 %", "result": "+0.5 °C"}]}
